# Target: (α4)2(β2)3 nAChR (A2B3, high affinity) (Rattus norvegicus, UniProt P09483+P12390, P09483:H144V/P09483:Q152F/P09483:T154L)
# Assay: two-electrode voltage clamp, Xenopus oocytes, agonist dose-response
# Format: cell-based
# Conditions: -60 mV, ND96 Ca2+ free, pH 7.5
# Sequence of (α4)2(β2)3 nAChR (A2B3, high affinity) (P12390 25-500): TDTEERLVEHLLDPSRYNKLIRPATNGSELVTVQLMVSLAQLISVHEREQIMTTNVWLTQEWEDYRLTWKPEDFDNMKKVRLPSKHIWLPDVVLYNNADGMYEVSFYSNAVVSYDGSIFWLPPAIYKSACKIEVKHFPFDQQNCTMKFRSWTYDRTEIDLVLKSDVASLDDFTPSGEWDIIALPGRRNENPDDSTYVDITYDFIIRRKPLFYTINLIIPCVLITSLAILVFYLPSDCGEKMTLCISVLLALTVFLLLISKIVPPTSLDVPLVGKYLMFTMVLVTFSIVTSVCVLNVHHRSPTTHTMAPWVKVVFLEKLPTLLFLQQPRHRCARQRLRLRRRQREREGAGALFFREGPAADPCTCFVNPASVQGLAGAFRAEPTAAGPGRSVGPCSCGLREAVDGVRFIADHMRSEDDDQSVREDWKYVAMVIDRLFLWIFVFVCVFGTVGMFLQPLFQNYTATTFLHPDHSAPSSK
# Sequence of (α4)2(β2)3 nAChR (A2B3, high affinity) (P09483 31-630 H144V/Q152F/T154L): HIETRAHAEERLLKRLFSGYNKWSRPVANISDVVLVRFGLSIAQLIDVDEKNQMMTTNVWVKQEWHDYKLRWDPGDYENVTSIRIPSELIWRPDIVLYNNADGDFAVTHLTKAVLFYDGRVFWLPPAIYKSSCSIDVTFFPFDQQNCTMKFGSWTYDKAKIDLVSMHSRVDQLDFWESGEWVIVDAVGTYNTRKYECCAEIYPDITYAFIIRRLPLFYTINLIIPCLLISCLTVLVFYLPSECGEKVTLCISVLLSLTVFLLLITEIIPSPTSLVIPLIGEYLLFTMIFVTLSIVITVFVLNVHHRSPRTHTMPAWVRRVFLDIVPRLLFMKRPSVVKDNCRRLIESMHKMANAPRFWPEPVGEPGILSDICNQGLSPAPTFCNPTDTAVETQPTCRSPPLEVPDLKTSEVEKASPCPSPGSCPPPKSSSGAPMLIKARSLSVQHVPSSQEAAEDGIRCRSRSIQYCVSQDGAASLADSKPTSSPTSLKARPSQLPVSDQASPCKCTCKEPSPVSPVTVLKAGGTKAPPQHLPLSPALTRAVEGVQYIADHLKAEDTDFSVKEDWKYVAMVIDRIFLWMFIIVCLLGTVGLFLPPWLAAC
compound,measurement,value
OCCCCC#Cc1cncc(OC[C@@H]2CCN2)c1 [sazetidine-A],EC50,4.8 ± 0.3 nM

# From article PMC4033646 (ACS Chemical Biology, 2014)
